Measured values from article PMC3904085 (Frontiers in Neuroscience, 2014).
Entries after “also recorded” stand apart in the source; their conditions may differ. Like-named read-outs stand apart in the source and are kept apart here.

Key:
[1] = Rat exposure (plasma and brain pharmacokinetics); type: in vivo, Sprague–Dawley rats; conditions: for concentration at 2 h / Cmax / Tmax / AUC(0-t): male, Sprague-Dawley; for AUC(0-t): read-out: AUC0–6 h
Experimental: Two cohorts of rats were used in each study, with samples taken from one cohort at 0.5, 1, and 2 h post-dose, and samples taken from the second cohort at 1.5, 4, and 6 h post-dose. The first cohort of animals was sacrificed at 2 h post-dose, and the second at 6 h post-dose to allow for collection of brain samples.

C57Bl/6 mice = experiment: DRL 36-s schedule of reinforcement in wild-type mice; type: in vivo, mouse; conditions: for Lever Presses Mean / Reinforcers Mean: WT mice DRL-36-s, raw data
From the text: (§1) The levers in these chambers were mounted on one wall with an adjacent food magazine next to the lever in the middle of the wall. A reinforced response caused a clicker apparatus to activate and the pellet feeder to deposit one 45-mg sucrose pellet (BioServ, Frenchtown, NJ) into the food magazine. The house light, which was mounted on the ceiling, was turned on when the session began, remained on throughout the entire session, and was turned off at the end of the session. Each experimental chamber was enclosed in a melamine sound-attenuating cubicle and equipped with a white noise generator to provide masking noise.
(§2) Each mouse was initially trained under a variable time 60-s operant schedule for 5 days, followed by fixed ratio-1 ratio schedule for 5 days. After the mice had acquired lever-pressing behavior, they were trained during daily DRL 6-s sessions for ~1 week, then mice progressed through weekly ascending DRL requirements (12, 18, 24, 30 s) before moving to DRL 36-s sessions. […] Experimental sessions lasted for 45 min and were conducted 5 days/week during light hours.
(§3) Drugs were administered to the animals once or twice weekly with at least 1 week between subsequent drugs to minimize possible carryover effects. Drug treatments were administered on Tuesdays and Fridays. No treatments were administered on other test days. Wednesdays were control days. “Control” behavior was calculated as the pooled mean lever presses or reinforcers received during Wednesday sessions across all Wednesdays for the duration of each study. Performance was normalized to percent of control by dividing total responses (or reinforcers) for each drug or vehicle treatment by the mean number of responses (reinforcers) in the respective pooled control condition, multiplied by 100.
(§4) The data analyses were conducted on the raw response and reinforcement data. All behavioral data are expressed as the mean ± s.e.m. normalized to the control condition.

[2] = test system: mice lacking OX2 receptors; experiment: DRL 36-s schedule of reinforcement in OX2 KO mice; type: in vivo, mouse; conditions: for Lever Presses Mean / Reinforcers Mean: OX2 KO mice DRL-36-s, raw data
From the text: (§5) Rats were acclimated to housing conditions for 4 days, followed by sham dosing once daily for 3 days, prior to the experiment. For DRL experiments, male Sprague–Dawley rats weighing between 300 and 350 g at the beginning of the behavioral experiments (Holtzman, Madison, WI) were housed in pairs. For mouse DRL studies, male C57Bl/6 mice (Taconic Farms, Hudson, NY) or mice lacking either OX1 or OX2 receptors, around 8 weeks of age, were obtained from private breeding colonies at Taconic Farms (Hudson, NY). OX1 and OX2 receptor knockout mice were generated using in vitro fertilization of embryos in C57Bl/6 female mice with sperm harvested from male mice obtained from the University of Texas Southwestern Medical Center (Dallas, TX), and backcrossed for at least 10 generations. Mice and rats were housed in separate colony rooms, which were maintained at 22°C and 60% relative humidity. For rat DRL experiments, water was available for a 20-min period following the daily behavioral session. Based on recommendations from the animal care and use committee, the mouse DRL assay was developed using food deprivation rather than water deprivation. […] All experiments were conducted during the light cycle and in compliance with the Guide for the Care and Use of Laboratory Animals under protocols approved by a local animal care and use committee.
as §1, §2, §3, §4

[3] = test system: mice lacking OX1 receptors; experiment: DRL 36-s schedule of reinforcement in OX1 KO mice; type: in vivo, mouse; conditions: for Lever Presses Mean / Reinforcers Mean: OX1 KO mice DRL-36-s, raw data
From the text: as §5, §1, §2, §3, §4

Sprague–Dawley rats = experiment: DRL 72-s schedule of reinforcement in rats; type: in vivo, rat; conditions: for Lever Presses Mean / Reinforcers Mean: HSD rats DRL-72-s, raw data
From the text: Each chamber was enclosed in a melamine sound-attenuating cubicle. A white noise generator provided masking noise. The interior of each chamber consisted of three levers mounted on one wall with a house light mounted on the opposite wall. The house light was turned on at initiation of each test session and was turned off at the termination of each session. A water access port was situated next to the lever in the middle of the wall, wherein a reinforced response caused a clicker apparatus to sound paired with a dipper (0.02-ml cup) to be lifted from a water trough to an opening in the floor of the access port for 4 s.
Rats were initially trained under an alternative fixed ratio 1 water reinforcement schedule with a fixed 1-min time schedule for automatic reinforcement. Thus, each response was reinforced, with water also provided every minute in the absence of a response. […] Following acquisition of lever-pressing behavior, rats were trained daily on DRL 18-s sessions for ~2 weeks, following which they were advanced to DRL 72-s sessions. Responding on these sessions became stable after ~8 weeks. Experimental test sessions lasted for 1 h and were conducted 5 days/week during light hours.
as §3, §4

[4] = test system: c-Fos protein in rat medial prefrontal cortex; experiment: Restraint-stress-induced c-Fos activation (ELISA); conditions: 30 mg/kg
Experimental: Thirty min later, rats were restrained in a rigid plastic flat-bottom restraint tube (Braintree Scientific, Inc.; Braintree, MA, USA) for 20 min. After the 20 min stress period, rats were moved to a new cage and housed individually. Rats were sacrificed 2 h after stress onset. […] Immediately after sacrifice, brains were removed, the medial prefrontal cortex (mPFC), a brain area implicated in the pathophysiology of depression, was dissected from both hemispheres and frozen in 1.5 ml centrifuge tubes in dry ice, and stored at −80°C for later analysis.
Frozen mPFC tissues were removed from the −80°C freezer and placed on ice. Tissue was homogenized with a dounce homogenizer. The nuclear extract was prepared from the homogenized samples as per manufacturer's instructions using a CHEMICON ®Nuclear Extraction Kit (Millipore; Billerica, MA, USA). Protein concentrations were determined in the nuclear extracts using the Pierce BCA Protein Assay kit (Pierce Biotechnology, Inc., Rockford, IL, USA). Nuclear fractions were then assayed for Fos protein levels using the Pierce c-Fos Transcription Factor Kit (Pierce Biotechnology, Inc., Rockford, IL, USA), according to the manufacturer's instructions. […] Data were analyzed and plotted using GraphPad Prism (GraphPad Software, Inc.; La Jolla, CA, USA).

[5] = set-up: method as in earlier work; conditions: ref Fitch et al., unpublished results; Anderson et al., under review; cited from earlier work
[6] = Plasma and brain binding by equilibrium dialysis (unbound fraction); type: in vitro ADME; conditions: rat, equilibrium dialysis at 1 μM
[7] = 30 mg/kg PO, two hours post treatment, Ctotal × Fu
[8] = mice lacking OX1 receptors, DRL-36-s, 20 mg/kg

Cu (unbound concentration) brain [1, 7]: 0.67 nM
Cu (unbound concentration) plasma [1, 7]: 3.52 nM
concentration at 2 h ([1]; brain, 30 mg/kg IP, two hours post treatment, read-out: Brain concentration): 77.2 ng/g
concentration at 2 h ([1]; brain, 30 mg/kg PO, two hours post treatment, read-out: Brain concentration): 33.5 ng/g
Cmax ([1]; plasma, 30 mg/kg IP): 1170 ng/mL
Tmax ([1]; plasma, 30 mg/kg IP): 30 min
AUC(0-t) ([1]; plasma, 30 mg/kg IP): 1300 ng·h/mL
concentration at 2 h ([1]; plasma, 30 mg/kg IP, two hours post treatment, read-out: Plasma concentration): 149 ng/mL
Cmax ([1]; plasma, 30 mg/kg PO): 196 ng/mL
Tmax ([1]; plasma, 30 mg/kg PO): 30 min
AUC(0-t) ([1]; plasma, 30 mg/kg PO): 269 ng·h/mL
concentration at 2 h ([1]; plasma, 30 mg/kg PO, two hours post treatment, read-out: Plasma concentration): 45.8 ng/mL
fraction unbound at 1 μM ([6]; brain, read-out: Fu (fraction unbound) brain): 0.0089
fraction unbound at 1 μM ([6]; plasma, read-out: Fu (fraction unbound) plasma): 0.0341
SMILES: Cl.O=S(=O)(c1ccc(F)cc1)N(Cc1ncc[nH]1)c1ccccc1-c1ccccc1 [LSN2424100, N-((1H-imidazol-2-yl)methyl)-N-([1,1′-biphenyl]-2-yl)-4-fluorobenzenesulfonamide hydrochloride]
Lever presses emitted (C57Bl/6 mice; C57Bl/6 mice DRL-36-s, 10 mg/kg IP): 50 % of control
Decrease in lever presses emitted, in words (C57Bl/6 mice; C57Bl/6 mice DRL-36-s, 20 mg/kg): did not reach statistical significance
Reinforcers received (maximum increase) (C57Bl/6 mice; C57Bl/6 mice DRL-36-s, doses 3–20 mg/kg IP, did not reach statistical significance): up to 225 % of control
Lever Presses Mean (C57Bl/6 mice; dose 3 mg/kg): 153.38
Reinforcers Mean (C57Bl/6 mice; dose 3 mg/kg): 15.00
Lever Presses Mean (C57Bl/6 mice; dose 10 mg/kg): 83.88
Reinforcers Mean (C57Bl/6 mice; dose 10 mg/kg): 18.75
Lever Presses Mean (C57Bl/6 mice; dose 20 mg/kg): 105.43
Reinforcers Mean (C57Bl/6 mice; dose 20 mg/kg): 28.00
Lever Presses Mean ([2]; dose 10 mg/kg): 171.75
Reinforcers Mean ([2]; dose 10 mg/kg): 18.88
Lever Presses Mean ([2]; dose 20 mg/kg): 160.00
Reinforcers Mean ([2]; dose 20 mg/kg): 23.38
Lever Presses Mean ([2]; dose 40 mg/kg): 158.25
Reinforcers Mean ([2]; dose 40 mg/kg): 26.25
Change in reinforcers received or lever presses emitted, in words ([2]; mice lacking OX2 receptors, doses up to 40 mg/kg): no significant change
Lever Presses Mean ([3]; dose 3 mg/kg): 164.38
Reinforcers Mean ([3]; dose 3 mg/kg): 23.13
Lever Presses Mean ([3]; dose 10 mg/kg): 174.75
Reinforcers Mean ([3]; dose 10 mg/kg): 20.00
Lever Presses Mean ([3]; dose 20 mg/kg): 105.25
Reinforcers Mean ([3]; dose 20 mg/kg): 31.75
Lever presses emitted [3, 8]: 50 % of control
Reinforcers received [3, 8]: 200 % of control
Lever Presses Mean (Sprague–Dawley rats; dose 3 mg/kg): 67.86
Reinforcers Mean (Sprague–Dawley rats; dose 3 mg/kg): 10.71
Lever Presses Mean (Sprague–Dawley rats; dose 10 mg/kg): 48.14
Reinforcers Mean (Sprague–Dawley rats; dose 10 mg/kg): 12.14
Lever Presses Mean (Sprague–Dawley rats; dose 30 mg/kg IP): 56.00
Reinforcers Mean (Sprague–Dawley rats; dose 30 mg/kg IP): 15.43
Total lever presses emitted (Sprague–Dawley rats; rats DRL-72-s, 10 mg/kg, normalized to control days): 60 % of control
Lever presses made (Sprague–Dawley rats; rats DRL-72-s, 30 mg/kg IP): 70 % of control
Reinforcers received (Sprague–Dawley rats; rats DRL-72-s, 30 mg/kg IP): 170 % of control
Effect on restraint stress-induced increase in c-fos expression in prefrontal cortex ([4]; 30 mg/kg IP 30 min before 20 min restraint): attenuated; also recorded: blocked
c-fos protein levels in prefrontal cortex without stress (home cage) vs vehicle ([4]; 30 mg/kg IP, no restraint stress): no effect
Direct effects on food or water intake [5]: no direct effects
